Data reported in patent US20250326785A1, “SODIUM SALT AND ETHANOLAMINE SALT OF 23-HYDROXYTORMENTIC ACID” (HUYABIO International, LLC, priority 2024, published 2025).

What was measured:
[1] = Stability study at 25° C./60% RH, 40° C./75% RH and 60° C. (XRPD, HPLC purity, impurity tracking); settings: for XRPD: * = crystalline salt; for HPLC: based on free acid
Source text: Stability of HBI-3808 Sodium Salt Pattern 2 was studied over 13 weeks.
Table 2F presents impurity tracking results from a 13-week stability study of HBI-3808 sodium salt of Pattern 2. […]

[2] = Dynamic vapor sorption (DVS) analysis; type: physicochemical
Method: GC analysis indicated residual solvent contents of 2847 ppm methanol; and 27 ppm TBME. […] No residual methanol or TBME was detected due to signal over-lap. […] TG-DSC analysis indicated two weight losses. The first weight loss of 2.3 wt. % was observed between 20-170° C. […] In the DSC thermogram, three endothermic events were observed (FIG. 17I). […] FT-IR (FIG. 17J) and Raman spectra (FIG. 17K) were recorded for reference. […] XRPD pattern of the ethanolamine salt was retained post-DVS (FIG. 17N). […] However, at the end of the experiment the solids on the microscope slide had discolored (FIG. 17O).

[3] = Salt disproportionation study (slurry in water, XRPD of solids, pH of mother liquor); type: physicochemical
Method: The pH of the filtered mother liquor was 9.77.
Salt disproportionation studies of ethanolamine salt. […] The pH of the filtered mother liquor was 8.65.
Method: 40 mg of sodium salt of HBI-3808 having a XRPD of Pattern 2, was weighed into a 2 mL push cap vial and a stirrer bar added. 0.2 mL of water was added to the vial and the experiment was stirred for ca. 24 h at 25° C. After 24 h the slurry was filtered by centrifuge filtration and the recovered solids were analyzed by XRPD. The pH of the filtered mother liquor was measured.

[4] = Hydration study in methanol/water aw 0.1, 0.5 and 0.9; type: physicochemical
Source text: Hydration studies of ethanolamine salt.

[5] = Varying humidity (VH)-XRPD; type: physicochemical; settings: 0-90% RH
Method: During the sorption phase, sodium salt Pattern 2 was observed between 40-60% RH. […] A mixture of sodium salt Pattern 2 and 5 was also observed at 80% RH. […] During the second desorption, from 90% RH to 40% RH, sodium salt Pattern 5 was maintained.
VH-XRPD analysis was carried out between 40-0% RH (FIG. 5L).

For `C[C@@H]1CC[C@]2(C(=O)O)CC[C@]3(C)C(=CC[C@@H]4[C@@]5(C)C[C@@H](O)[C@H](O)[C@@](C)(CO)[C@@H]5CC[C@]43C)[C@@H]2[C@]1(C)O.NCCO` [ethanolamine salt of HBI-3808, ETHANOLAMINE SALT OF 23-HYDROXYTORMENTIC ACID], the “RRT 0.801 impurity” value ([1]; 40° C./75% RH, 1 week) was 0.10 % area, the “RRT 0.970 impurity” value ([1]; 40° C./75% RH, 1 week) was 0.14 % area and the “RRT 1.000 (HBI-3808)” value ([1]; 40° C./75% RH, 1 week) was 97.28 % area. For the same molecule, the “RRT 1.025 (Isomer of HBI-3808)” value ([1]; 40° C./75% RH, 1 week) was 2.48 % area, the “Total Impurities” value ([1]; 40° C./75% RH, 1 week) was 2.72 % area and the “RRT 0.970 impurity” value ([1]; 40° C./75% RH, 2 weeks) was 0.12 % area. For the same molecule, the “RRT 1.000 (HBI-3808)” value ([1]; 40° C./75% RH, 2 weeks) was 97.26 % area, the “RRT 1.025 (Isomer of HBI-3808)” value ([1]; 40° C./75% RH, 2 weeks) was 2.40 % area and the “RRT 1.935 impurity” value ([1]; 40° C./75% RH, 2 weeks) was 0.22 % area. For the same molecule, the “Total Impurities” value ([1]; 40° C./75% RH, 2 weeks) was 2.74 % area, the “RRT 0.970 impurity” value ([1]; 40° C./75% RH, 4 weeks) was 0.11 % area and the “RRT 1.025 (Isomer of HBI-3808)” value ([1]; 40° C./75% RH, 4 weeks) was 2.41 % area. The “Total Impurities” value ([1]; 40° C./75% RH, 4 weeks) was 2.52 % area, the “RRT 0.970 impurity” value ([1]; 40° C./75% RH, 8 weeks) was 0.21 % area and the “RRT 1.000 (HBI-3808)” value ([1]; 40° C./75% RH, 8 weeks) was 96.88 % area. The “RRT 1.025 (Isomer of HBI-3808)” value ([1]; 40° C./75% RH, 8 weeks) was 2.51 % area, the “RRT 1.767 impurity” value ([1]; 40° C./75% RH, 8 weeks) was 0.40 % area and the “Total Impurities” value ([1]; 40° C./75% RH, 8 weeks) was 3.12 % area. The “RRT 1.000 (HBI-3808)” value ([1]; 40° C./75% RH, 13 weeks) was 97.41 % area, the “RRT 1.025 (Isomer of HBI-3808)” value ([1]; 40° C./75% RH, 13 weeks) was 2.40 % area and the “RRT 1.935 impurity” value ([1]; 40° C./75% RH, 13 weeks) was 0.20 % area. For the same molecule, the “Total Impurities” value ([1]; 40° C./75% RH, 13 weeks) was 2.59 % area, the “RRT 1.000 (HBI-3808)” value ([1]; 40° C./75% RH, T = 0) was 97.82 % area and the “RRT 1.025 (Isomer of HBI-3808)” value ([1]; 40° C./75% RH, T = 0) was 2.18 % area. For the same molecule, the “Total Impurities” value ([1]; 40° C./75% RH, T = 0) was 2.18 % area, the HPLC/ % area ([1]; 60° C. (closed vial), 13 Weeks) was 97.4 % area and the XRPD ([1]; 60° C. (closed vial), 1 Week) was 1*. For the same molecule, the HPLC ([1]; 60° C. (closed vial), 1 Week) was 97.5 % area, the XRPD ([1]; 60° C. (closed vial), 2 Weeks) was 1* and the HPLC ([1]; 60° C. (closed vial), 2 Weeks) was 97.3 % area. The XRPD ([1]; 60° C. (closed vial), 4 Weeks) was 1*, the HPLC ([1]; 60° C. (closed vial), 4 Weeks) was 97.5 % area and the XRPD ([1]; 60° C. (closed vial), 8 Weeks) was 1*. The HPLC ([1]; 60° C. (closed vial), 8 Weeks) was 97.0 % area, the XRPD ([1]; 60° C. (closed vial), 13 Weeks) was 1* and the HPLC ([1]; 60° C. (closed vial), 13 Weeks) was 97.4 % area. The “RRT 0.801 impurity” value ([1]; 60° C., 1 week) was 0.12 % area, the “RRT 1.000 (HBI-3808)” value ([1]; 60° C., 1 week) was 97.46 % area and the “RRT 1.025 (Isomer of HBI-3808)” value ([1]; 60° C., 1 week) was 2.43 % area. For the same molecule, the “Total Impurities” value ([1]; 60° C., 1 week) was 2.54 % area, the “RRT 0.970 impurity” value ([1]; 60° C., 2 weeks) was 0.12 % area and the “RRT 1.000 (HBI-3808)” value ([1]; 60° C., 2 weeks) was 97.27 % area. For the same molecule, the “RRT 1.025 (Isomer of HBI-3808)” value ([1]; 60° C., 2 weeks) was 2.41 % area, the “RRT 1.935 impurity” value ([1]; 60° C., 2 weeks) was 0.20 % area and the “Total Impurities” value ([1]; 60° C., 2 weeks) was 2.73 % area. The “RRT 0.970 impurity” value ([1]; 60° C., 4 weeks) was 0.11 % area, the “RRT 1.000 (HBI-3808)” value ([1]; 60° C., 4 weeks) was 97.49 % area and the “RRT 1.025 (Isomer of HBI-3808)” value ([1]; 60° C., 4 weeks) was 2.40 % area. The “Total Impurities” value ([1]; 60° C., 4 weeks) was 2.51 % area, the “RRT 0.970 impurity” value ([1]; 60° C., 8 weeks) was 0.12 % area and the “RRT 1.000 (HBI-3808)” value ([1]; 60° C., 8 weeks) was 97.04 % area. For the same molecule, the “RRT 1.025 (Isomer of HBI-3808)” value ([1]; 60° C., 8 weeks) was 2.49 % area, the “RRT 1.767 impurity” value ([1]; 60° C., 8 weeks) was 0.35 % area and the “Total Impurities” value ([1]; 60° C., 8 weeks) was 2.96 % area. For the same molecule, the “RRT 1.000 (HBI-3808)” value ([1]; 60° C., 13 weeks) was 97.41 % area, the “RRT 1.025 (Isomer of HBI-3808)” value ([1]; 60° C., 13 weeks) was 2.41 % area and the “RRT 1.935 impurity” value ([1]; 60° C., 13 weeks) was 0.18 % area. For the same molecule, the “Total Impurities” value ([1]; 60° C., 13 weeks) was 2.59 % area, the “RRT 1.000 (HBI-3808)” value ([1]; 60° C., T = 0) was 97.82 % area and the “RRT 1.025 (Isomer of HBI-3808)” value ([1]; 60° C., T = 0) was 2.18 % area. For the same molecule, the “Total Impurities” value ([1]; 60° C., T = 0) was 2.18 % area, the “input purity by HPLC” value ([1]; input material of the stability study (baseline)) was 97.5 % area and the “XRPD of recovered material post-DVS” value [2] was “retained”. The “water (mass) uptake” value ([2]; at 80% RH/25° C. (Pattern 2: second DVS cycle)) was 3.0 wt. %, the hygroscopicity ([2]; from water uptake at 80% RH, 25° C.) was “slightly hygroscopic” and the “pH of the filtered mother liquor” value [3] was 8.65. The “XRPD of recovered solids” value ([3]; ca. 24 h at 25° C.) was “no salt disproportionation had occurred”, the “XRPD of solids recovered at the end of the experiment” value [4] was “consistent with ethanolamine salt” and the “XRPD pattern / form stability over relative humidity” value [5] was “no changes in XRPD Pattern”.
